Data from US11505811B2, “Method for the preparation of 2,4-dihydroxybutyrate” (ADISSEO FRANCE S.A.S., priority 2012, dated 2022).
Numbering of substitutions follows the chain as printed. Where two headings read alike, the source gives them in different places.

How the values were obtained:
Type in all cases: biochemical
[1] = molecular target: T1, Escherichia coli malate dehydrogenase Ec-Mdh variant R81A M85E, SEQ ID No. 106 (Escherichia coli, UniProt P61889, M85E/R81A); assay: OHB/oxaloacetate reductase assay, Ec-Mdh R81A M85E; settings: pH 7, 37° C.
T1 sequence (P61889 1-312 R81A/M85E): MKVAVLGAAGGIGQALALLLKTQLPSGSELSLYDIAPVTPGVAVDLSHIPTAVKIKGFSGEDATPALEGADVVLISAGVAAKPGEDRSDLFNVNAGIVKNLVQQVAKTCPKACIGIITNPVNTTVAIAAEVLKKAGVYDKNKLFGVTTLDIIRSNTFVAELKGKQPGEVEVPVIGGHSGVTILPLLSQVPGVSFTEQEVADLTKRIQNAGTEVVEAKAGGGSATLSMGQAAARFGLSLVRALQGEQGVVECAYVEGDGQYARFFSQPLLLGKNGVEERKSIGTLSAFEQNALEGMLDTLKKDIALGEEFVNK
Experimental: (§1) Enzymatic assays: The reaction mixture contained 60 mM Hepes (pH 7), 50 mM potassium chloride, 5 mM MgCl2, 0.25 mM NADH, (optionally 5 mM fructose-1,6-bisphosphate) (all products from Sigma), and appropriate amounts of purified malate or lactate dehydrogenase or cell extract. Reactions were started by adding appropriate amounts of 2-oxo-4-hydroxybutyrate (OHB), pyruvate, or oxaloacetate (OAA). Enzymatic assays were carried out at 37° C. in 96-well flat bottomed microtiter plates in a final volume of 250 μL. The reactions were followed by the characteristic absorption of NADH at 340 nm (εNADH=6.22 mM^−1 cm^−1) in a microplate reader (BioRad 680XR).
(§2) Site-directed mutagenesis of the mdh gene from E. coli was carried out as described in Example 2 using the primers listed in Table 5. Plasmid pET28-Ec-mdh was used as the template.
(§3) Mutant enzymes were expressed, purified and tested for OHB and oxaloacetate reductase activity as described in Example 1. […] The mutation R81A in Ec-Mdh was combined with additional changes in the protein sequence.

[2] = molecular target: T2, Escherichia coli malate dehydrogenase Ec-Mdh variant R81A M85E I12V, SEQ ID No. 110 (Escherichia coli, UniProt P61889, I12V/M85E/R81A); assay: OHB/oxaloacetate reductase assay, Ec-Mdh R81A M85E I12V; settings: pH 7, 37° C.
T2 sequence (P61889 1-312 I12V/R81A/M85E): T1 sequence (P61889 1-312 R81A/M85E) with I12V
Experimental: as §1, §2, §3

[3] = molecular target: T3, Escherichia coli malate dehydrogenase Ec-Mdh variant R81A G179D, SEQ ID No. 112 (Escherichia coli, UniProt P61889, G179D/R81A); assay: OHB/oxaloacetate reductase assay, Ec-Mdh R81A G179D; settings: pH 7, 37° C.
T3 sequence (P61889 1-312 R81A/G179D): T1 sequence (P61889 1-312 R81A/M85E) with E85M, G179D
Experimental: as §1, §2, §3

[4] = molecular target: T4, Escherichia coli malate dehydrogenase Ec-Mdh variant R81A, SEQ ID No. 102 (Escherichia coli, UniProt P61889, R81A); assay: OHB/oxaloacetate reductase assay, Ec-Mdh R81A; settings: pH 7, 37° C.
T4 sequence (P61889 with tags, fused parts or gaps R81A): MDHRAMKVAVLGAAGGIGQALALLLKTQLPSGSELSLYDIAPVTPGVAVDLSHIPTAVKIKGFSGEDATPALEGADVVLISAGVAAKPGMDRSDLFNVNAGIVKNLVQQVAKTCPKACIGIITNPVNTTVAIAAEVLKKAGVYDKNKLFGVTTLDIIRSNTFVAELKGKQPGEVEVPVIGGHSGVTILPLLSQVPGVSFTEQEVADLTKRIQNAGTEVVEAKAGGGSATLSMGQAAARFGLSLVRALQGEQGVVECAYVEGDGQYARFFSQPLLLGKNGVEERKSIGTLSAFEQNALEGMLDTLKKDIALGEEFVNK
Experimental: as §1, §2, §3

[5] = molecular target: T5, Escherichia coli malate dehydrogenase Ec-Mdh variant R81A D86S, SEQ ID No. 1114 (Escherichia coli, UniProt P61889, D86S/R81A); assay: OHB/oxaloacetate reductase assay, Ec-Mdh R81A D86S; settings: pH 7, 37° C.
T5 sequence (P61889 1-312 R81A/D86S): T1 sequence (P61889 1-312 R81A/M85E) with E85M, D86S
Experimental: as §1, §2, §3

[6] = molecular target: T6, Escherichia coli malate dehydrogenase Ec-Mdh variant R81A M85Q, SEQ ID No. 104 (Escherichia coli, UniProt P61889, M85Q/R81A); assay: OHB/oxaloacetate reductase assay, Ec-Mdh R81A M85Q; settings: pH 7, 37° C.
T6 sequence (P61889 1-312 R81A/M85Q): T1 sequence (P61889 1-312 R81A/M85E) with E85Q
Experimental: as §1, §2, §3

[7] = molecular target: T7, Escherichia coli (L)-malate dehydrogenase Ec-Mdh, wild type, SEQ ID NO: 2 (Escherichia coli, UniProt P61889); assay: OHB/oxaloacetate reductase assay (NADH oxidation at 340 nm), Ec-Mdh wild type; settings: Table 6; up to 50 mM OHB; pH 7, 37° C., 0.25 mM NADH
T7 construct: made in house; host or cells: E. coli BL21 (DE3) star
T7 sequence (P61889 1-312): T1 sequence (P61889 1-312 R81A/M85E) with A81R, E85M
Description: The genes coding for (L)-malate dehydrogenase in Escherichia coli, Ec-mdh (SEQ ID NO: 1), (D)-lactate dehydrogenase in E. coli, Ec-ldhA (SEQ ID NO: 3), (L)-lactate dehydrogenase of Lactococcus lactis, Ll-ldhA (SEQ ID NO: 5), (L)-lactate dehydrogenase of Bacillus subtilis, Bs-ldh (SEQ ID NO: 7), (L)-lactate dehydrogenase of Geobacillus stearothermophilus, Gs-ldh (SEQ ID NO: 9), the two isoforms of the (L)-lactate dehydrogenase of Oryctalagus cuniculus, Oc-ldhA (SEQ ID NO: 11 and SEQ ID NO: 13), were amplified by PCR using the high-fidelity polymerase Phusion™ (Fermentas) and the primers listed in Table 1. Genomic DNAs of E. coli MG1655, L. lactis IL1403, and B. subtilis strain 168 were used as the template. The genes Oc-ldhA, and Gs-ldh were codon-optimized for expression in E. coli and synthesized by MWG Eurofins. The primers introduced restriction sites (Table 1) upstream of the start codon and downstream of the stop codon, respectively, facilitating the ligation of the digested PCR products into the corresponding sites of the pET28a+ (Novagen) expression vector using T4 DNA ligase (Fermentas). Ligation products were transformed into E. coli DH5a cells (NEB). […]

[8] = molecular target: T8, Escherichia coli malate dehydrogenase Ec-Mdh variant R81A 112V, SEQ ID No. 115 (Escherichia coli, UniProt P61889, I12V/R81A); assay: OHB/oxaloacetate reductase assay, Ec-Mdh R81A 112V; settings: pH 7, 37° C.
T8 sequence (P61889 1-312 I12V/R81A): T1 sequence (P61889 1-312 R81A/M85E) with I12V, E85M
Experimental: as §1, §2, §3

[9] = molecular target: T9, Escherichia coli malate dehydrogenase Ec-Mdh variant R81A M85Q I12V, SEQ ID No. 108 (Escherichia coli, UniProt P61889, I12V/M85Q/R81A); assay: OHB/oxaloacetate reductase assay, Ec-Mdh R81A M85Q I12V; settings: up to 0.5 mM oxaloacetate; pH 7, 37° C.; read-out: Km (OAA)
T9 sequence (P61889 1-312 I12V/R81A/M85Q): T1 sequence (P61889 1-312 R81A/M85E) with I12V, E85Q
Experimental: as §1, §2, §3

[10] = up to 50 mM OHB, read-out: Km (OHB)
[11] = up to 0.5 mM oxaloacetate, read-out: Km (OAA)

| SMILES | Km [1, 10] [mM] | Km [2, 10] [mM] | Km [3, 10] [mM] | Km [4, 10] [mM] | Km [5, 10] [mM] | Km [6, 10] [mM] | Km [7] [mM] | Km [8, 10] [mM] | Km [1, 11] [mM] | Km [2, 11] [mM] | Km [3, 11] [mM] | Km [4, 11] [mM] | Km [9] [mM] | Km [5, 11] [mM] | Km [6, 11] [mM] | Km [8, 11] [mM] |
| --- | --- | --- | --- | --- | --- | --- | --- | --- | --- | --- | --- | --- | --- | --- | --- | --- |
| O=C(O)C(=O)CCO [OHB, 2-oxo-4-hydroxybutyrate] | > 50 | > 50 | > 50 | > 50 | > 50 | > 50 | > 50 | > 50 | – | – | – | – | – | – | – | – |
| O=C(O)CC(=O)C(=O)O [oxaloacetate, reference compound] | – | – | – | – | – | – | – | – | > 0.5 | > 0.5 | > 0.5 | > 0.5 | > 0.5 | > 0.5 | > 0.5 | > 0.5 |
